Tests used:
[1] = tested on: RKO p27 or p21 induced (arrested) colon adenocarcinoma cells; test: Alamar Blue cell viability assay, RKO p27 or p21 induced (arrested); format: cell-based; details: Homo sapiens, RKOp27, Table B2, cells arrested by Ponasterone A, 72 hours, read-out: −log EC50 RKO p27 or p21 induced (arrested) (converted)
Method: (§1) To determine the cell cycle specific mode of action, subclones of RKO colon adenocarcinoma cells (RKOp21 or RKOp27 as described by Schmidt et al. in Oncogene 19, 2423-2429; 2000) are seeded into 96 well flat bottom plates at a density of 16000 cells per well in a volume of 50 μl per well in DMEM growth medium with 10% FCS containing 10 μM Ponasterone A. 24 hours after seeding the 50 μl each of the compound dilutions in DMEM medium are added into each well of the 96-well plate. Each compound dilution is tested as triplicates. Wells containing untreated control cells are filled with 50 μl DMEM medium containing 1% DMSO. The cells are then incubated with the substances for 72 hours at 37° C. in a humidified atmosphere containing 5% carbon dioxide. To determine the viability of the cells, 10 μl of an Alamar Blue solution (Biosource) are added and the fluorescence is measured at an extinction of 544 nm and an emission of 590 nm. For the calculation of the cell viability the emission value from untreated cells is set as 100% viability and the emission rates of treated cells are set in relation to the values of untreated cells. Viabilities are expressed as % values. The Graphpad Prism program (GraphPad Software, Inc) is used for the calculation of EC50 values out of the obtained dose-response curves. Viability is compared of proliferating cells grown in the absence of the inducer Ponasterone A, versus viability of cells arrested by the expression of ectopic p27Kip1 induced by Ponasterone A.
(§2) Representative values for anti-proliferation/cytotoxicity [measured as −log EC50 (mol/l)] determined in the aforementioned assays follow from the following tables B1, B2 and B3, in which the numbers of the compounds correspond to the numbers of the examples.

[2] = tested on: RKO p27 or p21 uninduced (proliferating) colon adenocarcinoma cells; test: Alamar Blue cell viability assay, RKO p27 or p21 uninduced (proliferating); format: cell-based; details: Homo sapiens, RKOp27, 72 h, Table B2, anti-proliferative/cytotoxic activity, read-out: −log EC50 RKO p27 or p21 uninduced (proliferating) (converted)
Method: The anti-proliferative/cytotoxic activity of the compounds described herein can be tested on subclones of RKO human colon adenocarcinoma cells (Schmidt et al., Oncogene 19, 2423-2429; 2000) using the Alamar Blue cell viability assay (described in O'Brien et al. Eur J Biochem 267, 5421-5426, 2000). The compounds are dissolved as 10 mM solutions in DMSO and subsequently diluted in semi-logarithmic steps. DMSO dilutions are further diluted 1:100 into Dulbecco's modified Eagle's medium (DMEM) containing 10% fetal calf serum to a final concentration twice as much as the final concentration in the test. RKO subclones are seeded into 96 well flat bottom plates at a density of 4000 cells per well in a volume of 50 μl per well. 24 hours after seeding the 50 μl each of the compound dilutions in DMEM medium are added into each well of the 96 well plate. Each compound dilution is tested as triplicates. Wells containing untreated control cells are filled with 50 μl DMEM medium containing 1% DMSO. The cells are then incubated with the substances for 72 hours at 37° C. in a humidified atmosphere containing 5% carbon dioxide. To determine the viability of the cells, 10 μl of an Alamar Blue solution (Biosource) are added and the fluorescence is measured at an extinction of 544 nm and an emission of 590 nm. For the calculation of the cell viability the emission value from untreated cells is set as 100% viability and the emission rates of treated cells are set in relation to the values of untreated cells. Viabilities are expressed as % values. The Graphpad Prism program is used for the calculation of EC50 values for anti-proliferative/cytotoxic activity out of the obtained dose-response curves.
as §1, §2

SMILES | EC50 [1] | EC50 [2]
Cn1ccc(NCCN2C(=O)N3[C@H](c4cccc(O)c4)c4[nH]c5ccc(Cl)cc5c4C[C@@]3(C)C2=O)n1 (racemic) [Example 125, (3aSR,10RS)-6-Chloro-10-(3-hydroyx-phenyl)-3a-methyl-2-[2-(1-methyl-1H-pyrazol-3-ylamino)-ethyl]-3a,4,9,10-tetrahydro-2,9,10a-triaza-cyclopenta[b]fluorene-1,3-dione] | ≥ 316 nM | 39.8 to 251 nM
C[C@@]12Cc3c([nH]c4ccc(Cl)cc34)[C@@H](c3cccc(O)c3)N1C(=O)N(CCN1CCCCC1)C2=O (racemic) [Example 101, (3aSR,10RS)-6-Chloro-10-(3-hydroxy-phenyl)-3a-methyl-2-(2-piperidin-1-yl-ethyl)-3a,4,9,10-tetrahydro-2,9,10a-triaza-cyclopenta[b]fluorene-1,3-dione] | ≥ 3160 nM | ≤ 39.8 nM
C=CCNCCN1C(=O)N2[C@H](c3cccc(O)c3)c3[nH]c4ccc(OC)cc4c3C[C@@]2(C)C1=O (racemic) [Example 84, (3aSR,10RS)-2-(2-Allylamino-ethyl)-10-(3-hydroxy-phenyl)-6-methoxy-3a-methyl-3a,4,9,10-tetrahydro-2,9,10a-triaza-cyclopenta[b]fluorene-1,3-dione] | ≥ 3160 nM | ≤ 39.8 nM
C=CCNCCCN1C(=O)N2[C@H](c3cccc(O)c3)c3[nH]c4ccc(OC)cc4c3C[C@@]2(C)C1=O (racemic) [Example 146, (3aSR,10RS)-2-(3-Allylamino-propyl)-10-(3-hydroxy-phenyl)-6-methoxy-3a-methyl-3a,4,9,10-tetrahydro-2,9,10a-triaza-cyclopenta[b]fluorene-1,3-dione] | ≥ 316 nM | ≤ 39.8 nM
CCN(CCO)CCCN1C(=O)N2[C@H](c3cccc(O)c3)c3[nH]c4ccc(OC)cc4c3C[C@@]2(C)C1=O (racemic) [Example 89, (3aSR,10RS)-2-{3-[Ethyl-(2-hydroxy-ethyl)-amino]-propyl}-10-(3-hydroxy-phenyl)-6-methoxy-3a-methyl-3a,4,9,10-tetrahydro-2,9,10a-triaza-cyclopenta[b]fluorene-1,3-dione] | ≥ 3160 nM | ≤ 39.8 nM
COc1ccc2[nH]c3c(c2c1)C[C@@]1(C)C(=O)N(CCCN2CCCCCC2)C(=O)N1[C@@H]3c1cccc(O)c1 (racemic) [Example 113] | ≥ 316 nM | ≤ 39.8 nM
CCN(CC)CCCN1C(=O)N2[C@H](c3cccc(O)c3)c3[nH]c4ccc(Cl)cc4c3C[C@@]2(C)C1=O (racemic) [Example 137, (3aSR,10RS)-6-Chloro-2-(3-diethylamino-propyl)-10-(3-hydroxy-phenyl)-3a-methyl-3a,4,9,10-tetrahydro-2,9,10a-triaza-cyclopenta[b]fluorene-1,3-dione] | ≥ 3160 nM | ≤ 39.8 nM
COc1ccc2[nH]c3c(c2c1)C[C@@]1(C)C(=O)N(CCCN(C)C(C)C)C(=O)N1[C@@H]3c1cccc(O)c1 (racemic) [Example 94, (3aSR,10RS)-10-(3-Hydroxy-phenyl)-2-[3-(isopropyl-methyl-amino)-propyl]-6-methoxy-3a-methyl-3a,4,9,10-tetrahydro-2,9,10a-triaza-cyclopenta[b]fluorene-1,3-dione] | ≥ 3160 nM | ≤ 39.8 nM
CCNCCCN1C(=O)N2[C@H](c3cccc(O)c3)c3[nH]c4ccc(Cl)cc4c3C[C@@]2(C)C1=O (racemic) [Example 131, (3aSR,10RS)-6-Chloro-2-(3-ethylamino-propyl)-10-(3-hydroxy-phenyl)-3a-methyl-3a,4,9,10-tetrahydro-2,9,10a-triaza-cyclopenta[b]fluorene-1,3-dione] | ≥ 316 nM | ≤ 39.8 nM
COc1ccc2[nH]c3c(c2c1)C[C@@]1(C)C(=O)N(CCCNC2CCC2)C(=O)N1[C@@H]3c1cccc(O)c1 (racemic) [Example 86, (3aSR,10RS)-2-(3-Cyclobutylamino-propyl)-10-(3-hydroxy-phenyl)-6-methoxy-3a-methyl-3a,4,9,10-tetrahydro-2,9,10a-triaza-cyclopenta[b]fluorene-1,3-dione] | ≥ 3160 nM | ≤ 39.8 nM
C[C@@]12Cc3c([nH]c4ccc(Cl)cc34)[C@@H](c3cccc(O)c3)N1C(=O)N(CCCN1CCC1)C2=O (racemic) [Example 141, (3aSR,10RS)-2-(3-Azetidin-1-yl-propyl)-6-chloro-10-(3-hydroxy-phenyl)-3a-methyl-3a,4,9,10-tetrahydro-2,9,10a-triaza-cyclopenta[b]fluorene-1,3-dione] | ≥ 3160 nM | ≤ 39.8 nM
C[C@@]12Cc3c([nH]c4ccc(Cl)cc34)[C@@H](c3cccc(O)c3)N1C(=O)N(CCCNC1CCC1)C2=O (racemic) [Example 138, (3aSR,10RS)-6-Chloro-2-(3-cyclobutylamino-propyl)-10-(3-hydroxy-phenyl)-3a-methyl-3a,4,9,10-tetrahydro-2,9,10a-triaza-cyclopenta[b]fluorene-1,3-dione] | ≥ 3160 nM | ≤ 39.8 nM
C[C@@]12Cc3c([nH]c4ccc(Cl)cc34)[C@@H](c3cccc(O)c3)N1C(=O)N(CCNC1CCC1)C2=O (racemic) [Example 103, (3aSR,10RS)-6-Chloro-2-(2-cyclobutylamino-ethyl)-10-(3-hydroxy-phenyl)-3a-methyl-3a,4,9,10-tetrahydro-2,9,10a-triaza-cyclopenta[b]fluorene-1,3-dione] | ≥ 3160 nM | ≤ 39.8 nM
CC(C)(C)NCCN1C(=O)N2[C@H](c3cccc(O)c3)c3[nH]c4ccc(Cl)cc4c3C[C@@]2(C)C1=O (racemic) [Example 97, (3aSR,10RS)-2-(2-tert-Butylamino-ethyl)-6-chloro-10-(3-hydroxy-phenyl)-3a-methyl-3a,4,9,10-tetrahydro-2,9,10a-triaza-cyclopenta[b]fluorene-1,3-dione] | ≥ 3160 nM | ≤ 39.8 nM
C=CCNCCCN1C(=O)N2[C@H](c3cccc(O)c3)c3[nH]c4ccc(Cl)cc4c3C[C@@]2(C)C1=O (racemic) [Example 139, (3aSR,10RS)-2-(3-Allylamino-propyl)-6-chloro-10-(3-hydroxy-phenyl)-3a-methyl-3a,4,9,10-tetrahydro-2,9,10a-triaza-cyclopenta[b]fluorene-1,3-dione] | ≥ 3160 nM | ≤ 39.8 nM
COc1ccc2[nH]c3c(c2c1)C[C@@]1(C)C(=O)N(CCNCCO)C(=O)N1[C@@H]3c1cccc(O)c1 (racemic) [Example 82, (3aSR,10RS)-2-[2-(2-Hydroxy-ethylamino)-ethyl]-10-(3-hydroxy-phenyl)-6-methoxy-3a-methyl-3a,4,9,10-tetrahydro-2,9,10a-triaza-cyclopenta[b]fluorene-1,3-dione] | ≥ 3160 nM | ≤ 39.8 nM
COc1ccc2[nH]c3c(c2c1)C[C@@]1(C)C(=O)N(CCCNC2CC2)C(=O)N1[C@@H]3c1cccc(O)c1 (racemic) [Example 93, (3aSR,10RS)-2-(3-Cyclopropylamino-propyl)-10-(3-hydroxy-phenyl)-6-methoxy-3a-methyl-3a,4,9,10-tetrahydro-2,9,10a-triaza-cyclopenta[b]fluorene-1,3-dione] | ≥ 3160 nM | ≤ 39.8 nM
COc1ccc2[nH]c3c(c2c1)C[C@@]1(C)C(=O)N(CCCNCC2CC2)C(=O)N1[C@@H]3c1cccc(O)c1 (racemic) [Example 95, (3aSR,10RS)-2-[3-(Cyclopropylmethyl-amino)-propyl]-10-(3-hydroxy-phenyl)-6-methoxy-3a-methyl-3a,4,9,10-tetrahydro-2,9,10a-triaza-cyclopenta[b]fluorene-1,3-dione] | ≥ 3160 nM | ≤ 39.8 nM
